According to patent publication US10882837B2, “Amide compounds and use thereof” (ALPHALA CO., LTD., priority 2017, dated 2021):
Each block holds one compound with its values, some of them ahead of it.

How the values were obtained:
glucagon receptor (GCGR) = biological target: T1, glucagon receptor (GCGR) (Homo sapiens, UniProt P47871); assay: Glucagon cAMP inhibition assay (Cisbio cAMP Dynamic 2 HTRF); format: cell-based; details: GCGR overexpressed CHO-K1 cells or human primary hepatocytes (not specified); glucagon at EC50
T1 construct: expressed in transfected cells; host or cells: CHO-K1
T1 sequence (P47871 26-477, species assumed): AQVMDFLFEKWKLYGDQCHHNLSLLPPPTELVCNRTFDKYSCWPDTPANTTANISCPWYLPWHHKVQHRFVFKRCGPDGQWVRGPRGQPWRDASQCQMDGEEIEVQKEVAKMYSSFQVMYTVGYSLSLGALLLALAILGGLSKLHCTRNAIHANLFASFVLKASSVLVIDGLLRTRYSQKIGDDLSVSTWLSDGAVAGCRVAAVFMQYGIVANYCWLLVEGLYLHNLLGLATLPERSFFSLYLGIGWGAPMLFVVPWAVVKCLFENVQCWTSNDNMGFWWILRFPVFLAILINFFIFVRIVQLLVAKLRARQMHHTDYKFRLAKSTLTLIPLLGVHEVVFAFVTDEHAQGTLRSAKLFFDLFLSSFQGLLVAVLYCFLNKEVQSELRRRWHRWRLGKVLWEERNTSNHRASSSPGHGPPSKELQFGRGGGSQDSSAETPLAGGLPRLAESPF
Protocol: Glucagon eAMP Inhibition Assay
Downstream secondary messenger eAMP induced by glucagon was detected by Cisbio cAMP Dynamic 2 kit. Testing compounds were each prepared as a dimethyl sulfoxide (DMSO) solution at the concentration of 10 mM. To evaluate the potency of compounds in inhibiting the cAMP production, glucagon receptor (GCGR) overexpressed CHO-K1 cells or human primary hepatocytes were treated with compounds with a serial dilution. The cells were re-suspended in Hank's Balanced Salt solution (HBSS) contained 0.1% (w/v) bovine serum albumin and 800 nM 3-isobutyl-1-methylxanthine (IBMX) and seeded into low volume, 384 wells white plate. The diluted compounds were then added into the plate for 30 minutes pre-incubation where the final DMSO concentration was 1%. The cells were stimulated with glucagon at the concentration equaled to EC50 (an indicium of the concentration of a drag that gives half-maximal response) for 30 minutes at room temperature. After incubation, lysis buffer contain cAMP antibody and fluorescence acceptor were added into each well for additional 60 minutes incubation. Results were recorded by Molecular Devices SpectraMax Paradigm with the HTRF Detection Cartridges and the IC50 value of each compound in inhibiting the cAMP production was calculated with non-linear regression based on the amount of cAMP production.

GCGR = GCGR (Homo sapiens, UniProt P47871); assay: I125-glucagon binding assay (competition, GCGR membrane fractions); set-up: expressed in transfected cells; host or cells: CHO-K1; inhibition: dose or concentration left out as unconfirmed; details: for IC50: competition with I125-glucagon 0.0625 nM, membrane fractions from GCGR overexpressed CHO-K1 cells
Chain of GCGR (P47871 26-477, species assumed): as above
Protocol: I^125-Glucagon Binding Assay
The binding affinity of each compound was evaluated by a competition assay with I^125-glucagon. GCGR membrane fractions were obtained from GCGR overexpressed CHO-K1 cells as a stock of 1 mg/ml concentration. To evaluate the IC50 of compounds binding to GCGR, GCGR membrane fractions were treated with compounds with a serial dilution. The membrane fractions were diluted to 7.5 microgram per well in 70 microliter assay buffer contained 50 mM Tris pH 7.4 and 0.5% (w/v) bovine serum albumin and added into 96 wells plate. The membrane fractions were then mixed with 10 microliter diluted compounds. After 5 minutes pre-incubation, 20 microliter I^125 labeled glucagon (Perkin Elmer) was added into each well at the final concentration of 0.0625 nM. The assay mixtures were incubated at 25° C. for 30 minutes and then transferred onto the Millipore Multiscreen GF/B Plate coated with 0.5% (w/v) Polyethyleneimine. The filter plate was washed with wash buffer contained 50 mM Tris pH 7.4 for 2 times, 300 microliter each time. The residual isotope was detected by Hidex CHAMELEON V micro-beta counter and the IC50 value of each compound binding to GCGR was calculated with non-linear regression.

IC50 (glucagon receptor (GCGR)): 26.5 nM | IC50 (GCGR): 714 nM
SMILES: CCOC(=O)CCNC(=O)c1ccc(N[C@H](c2ccc(-c3nc4ccccc4o3)cc2)C(C)C)cc1 [Compound 4-5, ethyl (S)-3-(4-((1-(4-(benzo[d]oxazol-2-yl)phenyl)-2-methylpropyl)amino)benzamido)propanoate]

IC50 (glucagon receptor (GCGR)): 133 nM | IC50 (GCGR): 1110 nM
SMILES: CC(C)C(Oc1ccc(C(=O)NCCC(=O)O)cc1)c1ccc(-c2nc3ccccc3s2)cc1 (centres unmarked) [Compound 6-2, 3-(4-(1-(4-(Benzo[d]thiazol-2-yl)phenyl)-2-methylpropoxy)benzamido)propanoic acid]

IC50 (glucagon receptor (GCGR)): 334 nM | IC50 (GCGR): 199 nM
SMILES: CC(C)C[C@@H](Nc1ccc(C(=O)NCCC(=O)O)cc1)c1ccc(-c2noc(-c3ccccc3)n2)cc1 [Compound 2-44, (R)-3-(4-((3-methyl-1-(4-(5-phenyl-1,254-oxadiazol-3-yl)phenyl)butyl)amino)benzamido)propanoic acid]

IC50 (glucagon receptor (GCGR)): 43 nM | IC50 (GCGR): 350 nM
SMILES: CCCC[C@H](Nc1ccc(C(=O)NCCC(=O)OCC)cc1)c1ccc(-c2nc3ccccc3o2)cc1 [Compound 4-15, ethyl (S)-3-(4-((1-(4-(benzo[d]oxazol-2-yl)phenyl)pentyl)amino)benzamido)propanoate]

IC50 (glucagon receptor (GCGR)): 428 nM | IC50 (GCGR): 254 nM
SMILES: CCCC[C@H](Nc1ccc(C(=O)NCCC(=O)O)cc1)c1ccc(-c2noc(C(F)(F)F)n2)cc1 [Compound 2-47, (S)-3-(4-((1-(4-(5-(trifluoromethyl)-1,2,4-oxadiazol-3-yl)phenyl)pentyl)amino)benzamido)propanoic acid]

IC50 (glucagon receptor (GCGR)): 1080 nM | IC50 (GCGR): 101 nM
SMILES: CCCCC(Nc1ccc(C(=O)NCCC(=O)O)cc1)c1ccc(-c2nc3ccccc3o2)cc1 (centres unmarked) [Compound 4-4, 3-(4-((1-(4-(benzo[d]oxazol-2-yl)phenyl)pentyl)amino)benzamido)propanoic acid]

IC50 (glucagon receptor (GCGR)): 96 nM | IC50 (GCGR): 745 nM
SMILES: CCOC(=O)CCNC(=O)c1ccc(N[C@@H](CC(C)C)c2ccc(-c3nc4ccccc4o3)cc2)cc1 [Compound 4-17, ethyl (S)-3-(4-((1-(4-(benzo[d]oxazol-2-yl)phenyl)-3-methylbutyl)amino)benzamido)propanoate]

IC50 (glucagon receptor (GCGR)): 85.6 nM | IC50 (GCGR): > 30000 nM
SMILES: CCOC(=O)CCNC(=O)c1ccc(OC(c2ccc(-c3nc4ccccc4s3)cc2)C(C)C)cc1 (centres unmarked) [Compound 6-1, Ethyl 3-(4-(1-(4-(benzo[d]thiazol-2-yl)phenyl)-2-methylpropoxy)benzamido)propanoate]

IC50 (glucagon receptor (GCGR)): 95.7 nM | IC50 (GCGR): 968 nM
SMILES: CCOC(=O)CCNC(=O)c1ccc(NC(c2ccc(-c3nc4ccccc4o3)cc2)C(C)C)cc1 (centres unmarked) [Compound 4-1, ethyl 3-(4-((1-(4-(benzo[d]oxazol-2-yl)phenyl)-2-methylpropyl)amino)benzamido)propanoate]

IC50 (glucagon receptor (GCGR)): 1030 nM | IC50 (GCGR): 74 nM
SMILES: CCC(C)C(Nc1ccc(-c2nnc(-c3ccc(F)cc3)o2)cc1)c1ccc(C(=O)NCCC(=O)O)cc1 (centres unmarked) [Compound 3-8, 3-(4-(1-((4-(5-(4-fluorophenyl)-1,3,4-oxadiazol-2-yl)phenyl)amino)-2-methylbutyl)benzamido)propanoic acid]

IC50 (glucagon receptor (GCGR)): 52 nM | IC50 (GCGR): 446 nM
SMILES: CCOC(=O)CCNC(=O)c1ccc(N[C@H](c2ccc(-c3nc4ccccc4o3)cc2)C(C)CC)cc1 (stereo partly drawn) [Compound 4-19, Ethyl 3-(4-(((1S)-1-(4-(benzo[d]oxazol-2-yl)phenyl)-2-methylbutyl)amino)benzamido)propanoate]

Continued, compound first:

SMILES: CCOC(=O)CCNC(=O)c1ccc(N[C@@H](CC(C)C)c2ccc(-c3noc(-c4ccccc4)n3)cc2)cc1 [Compound 2-41, ethyl (S)-3-(4-((3-methyl-1-(4-(5-phenyl-1,2,4-oxadiazol-3-yl)phenyl)butyl)amino)benzamido)propanoate]
IC50 (glucagon receptor (GCGR)): 71.1 nM | IC50 (GCGR): 389 nM

SMILES: CCC(C)C(Nc1ccc(C(=O)NCCC(=O)O)cc1)c1ccc(-c2nnc(-c3ccc(F)cc3)o2)cc1 (centres unmarked) [Compound 1-30, 3-(4-((1-(4-(5-(4-fluorophenyl)-1,3,4-oxadiazol-2-yl)phenyl)-2-methylbutyl)amino)benzamido)propanoic acid]
IC50 (glucagon receptor (GCGR)): 3410 nM | IC50 (GCGR): 347 nM

SMILES: CCCCC(Nc1ccc(C(=O)NCCC(=O)O)cc1)c1ccc(-c2noc(-c3cccs3)n2)cc1 (centres unmarked) [Compound 2-13, 3-(4-((1-(4-(5-(thiophen-2-yl)-1,2,4-oxadiazol-3-yl)phenyl)pentyl)amino)benzamido)propanoic acid]
IC50 (glucagon receptor (GCGR)): 312 nM | IC50 (GCGR): 126 nM

SMILES: CCC(C)[C@H](Nc1ccc(C(=O)NCCC(=O)O)cc1)c1ccc(-c2noc(C(F)(F)F)n2)cc1 (stereo partly drawn) [Compound 2-30, 3-(4-(((1S)-2-methyl-1-(4-(5-(trifluoromethyl)-1,2,4-oxadiazol-3-yl)phenyl)butyl)amino)benzamido)propanoic acid]
IC50 (glucagon receptor (GCGR)): 550 nM | IC50 (GCGR): 166 nM

SMILES: CCCC(Nc1ccc(C(=O)NCCC(=O)OCC)cc1)c1ccc(-c2nnc(-c3ccccc3)o2)cc1 (centres unmarked) [Compound 1-6, Ethyl 3-(4-((1-(4-(5-phenyl-1,3,4-oxadiazol-2-yl)phenyl)butyl)amino)benzamido)propanoate]
IC50 (glucagon receptor (GCGR)): 31 nM | IC50 (GCGR): 2610 nM

SMILES: CCCC[C@H](Nc1ccc(C(=O)NCCC(=O)OCC)cc1)c1ccc(-c2noc(-c3ccccc3)n2)cc1 [Compound 2-33, ethyl (S)-3-(4-((1-(4-(5-phenyl-1,2,4-oxadiazol-3-yl)phenyl)pentyl)amino)benzamido)propanoate]
IC50 (glucagon receptor (GCGR)): 283 nM | IC50 (GCGR): 1040 nM

SMILES: CCOC(=O)CCNC(=O)c1ccc(N[C@H](CC(C)C)c2ccc(-c3noc(-c4ccccc4)n3)cc2)cc1 [Compound 2-42, ethyl (R)-3-(4-((3-methyl-1-(4-(5-phenyl-1,2,4-oxadiazol-3-yl)phenyl)butyl)amino)benzamido)propanoate]
IC50 (glucagon receptor (GCGR)): 248 nM | IC50 (GCGR): 42 nM

SMILES: CCCCC(Nc1ccc(C(=O)NCCC(=O)OCC)cc1)c1ccc(-c2noc(-c3ccccc3)n2)cc1 (centres unmarked) [Compound 2-7, ethyl 3-(4-((1-(4-(5-phenyl-1,2,4-oxadiazol-3-yl)phenyl)pentyl)amino)benzamido)propanoate]
IC50 (glucagon receptor (GCGR)): 49 nM | IC50 (GCGR): 1210 nM | inhibition (GCGR; read-out: percentage of inhibition (number in parenthesis in IC50 binding column)): 27%

SMILES: CCOC(=O)CCNC(=O)c1ccc(NC(c2ccc(-c3noc(C(C)(C)C)n3)cc2)C(C)C)cc1 (centres unmarked) [Compound 2-1, ethyl 3-(4-((1-(4-(5-(tert-butyl)-1,2,4-oxadiazol-3-yl)phenyl)-2-methylpropyl)amino)benzamido)propanoate]
IC50 (glucagon receptor (GCGR)): 240 nM | IC50 (GCGR): 2900 nM

SMILES: CC(C)C(Nc1ccc(C(=O)NCCC(=O)O)cc1)c1ccc(-c2nnc(-c3ccc(F)cc3)o2)cc1 (centres unmarked) [Compound 1-18, 3-(4-((1-(4-(5-(4-Fluorophenyl)-1,3,4-oxadiazol-2-yl)phenyl)-2-methylpropyl)amino)benzamido)propanoic acid]
IC50 (glucagon receptor (GCGR)): 4350 nM | IC50 (GCGR): 122 nM

SMILES: CCOC(=O)CCNC(=O)c1ccc(N[C@H](c2ccc(-c3noc(-c4ccccc4)n3)cc2)C(C)CC)cc1 (stereo partly drawn) [Compound 2-18, ethyl 3-(4-(((1S)-2-methyl-(4-(5-phenyl-1,2,4-oxadiazol-3-yl)phenyl)butyl)amino)benzamido)propanoate]
IC50 (glucagon receptor (GCGR)): 46.7 nM | IC50 (GCGR): 830 nM

SMILES: CCOC(=O)CCNC(=O)c1ccc(NC(c2ccc(-c3nnc(C(C)(C)C)o3)cc2)C(C)CC)cc1 (centres unmarked) [Compound 1-21, Ethyl 3-(4-((1-(4-(5-(tert-butyl)-1,3,4-oxadiazol-2-yl)phenyl)-2-methylbutyl)amino)benzamido)propanoate]
IC50 (glucagon receptor (GCGR)): 126 nM | IC50 (GCGR): 3310 nM

SMILES: CC(C)CC(Nc1ccc(C(=O)NCCC(=O)O)cc1)c1ccc(-c2noc(-c3cccs3)n2)cc1 (centres unmarked) [Compound 2-14, 3-(4-((3-methyl-1-(4-(5-(thiophen-2-yl)-1,2,4-oxadiazol-3-yl)phenyl)butyl)amino)benzamido)propanoic acid]
IC50 (glucagon receptor (GCGR)): 1390 nM | IC50 (GCGR): 274 nM

SMILES: CCCC[C@@H](Nc1ccc(C(=O)NCCC(=O)O)cc1)c1ccc(-c2nnc(C(F)(F)F)o2)cc1 [Compound 1-54, (R)-3-(4-((1-(4-(5-(trifluoromethyl)-1,3,4-oxadiazol-2-yl)phenyl)pentyl)amino)benzamido)propanoic acid]
IC50 (glucagon receptor (GCGR)): 3670 nM | IC50 (GCGR): 3070 nM

SMILES: CC(C)[C@@H](Nc1ccc(C(=O)NCCC(=O)O)cc1)c1ccc(-c2noc(-c3ccccc3)n2)cc1 [Compound 2-23, (R)-3-(4-((2-methyl-1-(4-(5-phenyl-1,2,4-oxadiazol-3-yl)phenyl)propyl)amino)benzamido)propanoic acid]
IC50 (glucagon receptor (GCGR)): 1000 nM | IC50 (GCGR): 537 nM
